In patent US4303664A, “Novel penicillin derivatives containing a coumarin nucleus and medicines containing the same” (Teijin Limited, priority 1978, dated 1981):
≈ marks a conversion by molar mass, not a printed value.

Key:
Format in all cases: cell-based
[1] = system: Pseudomonas aeruginosa 130; assay: Bactericidal test (MIC), Pseudomonas aeruginosa 130; details: (16) Pseudomonas aeruginosa 130
From the text: (§1) Results of bactericidal tests (MIC, r/ml) on the penicillin derivatives of this invention prepared in the above examples are shown in the following table.

[2] = system: Pseudomonas aeruginosa GN-315; assay: Bactericidal test (MIC), Pseudomonas aeruginosa GN-315; details: GN315; (15) Pseudomonas aeruginosa GN-315
From the text: as §1

[3] = system: Staphylococcus aureus 1248; assay: Bactericidal test (MIC), Staphylococcus aureus 1248; details: (2) Staphylococcus aureus 1248; read-out: MIC
From the text: as §1

[4] = system: Enterobacter cloacae IF012937; assay: Bactericidal test (MIC), Enterobacter cloacae IF012937; details: (8) Enterobacter cloacae IF012937
From the text: as §1

[5] = system: Staphylococcus aureus 209-p; assay: Bactericidal test (MIC), Staphylococcus aureus 209-p; details: (1) Staphylococcus aureus 209-p
From the text: as §1

[6] = system: Serratia G-18; assay: Bactericidal test (MIC), Serratia G-18; details: G18; (11) Serratia G-18; read-out: MIC
From the text: as §1

[7] = system: Escherichia Coli NIHJ JC-2; assay: Bactericidal test (MIC), Escherichia Coli NIHJ JC-2; details: NIHJJC2; (5) Escherichia Coli NIHJ JC-2
From the text: as §1

[8] = system: Pseudomonas aeruginosa Tid-53; assay: Bactericidal test (MIC), Pseudomonas aeruginosa Tid-53; details: TID53; (14) Pseudomonas aeruginosa Tid-53
From the text: as §1

[9] = system: Rettgerella var. Tid-21; assay: Bactericidal test (MIC), Rettgerella var. Tid-21; details: (10) Rettgerella var. Tid-21; read-out: MIC
From the text: as §1

[10] = system: Pseudomonas aeruginosa 0-37; assay: Bactericidal test (MIC), Pseudomonas aeruginosa 0-37; details: 037; (13) Pseudomonas aeruginosa 0-37
From the text: as §1

[11] = system: Morganella var. G-2; assay: Bactericidal test (MIC), Morganella var. G-2; details: VAR.G2; (9) Morganella var. G-2; read-out: MIC
From the text: as §1

[12] = system: Pseudomonas aeruginosa IFO-3080; assay: Bactericidal test (MIC), Pseudomonas aeruginosa IFO-3080; details: IFO3080; (12) Pseudomonas aeruginosa IFO-3080; read-out: MIC
From the text: as §1

[13] = system: Klebsiella neumoniae ATCC10031; assay: Bactericidal test (MIC), Klebsiella neumoniae ATCC10031; details: (6) Klebsiella neumoniae ATCC10031; read-out: MIC
From the text: as §1

[14] = system: Salmonella typhimurium G-20; assay: Bactericidal test (MIC), Salmonella typhimurium G-20; details: Salmonella enterica; (4) Salmonella typhimurium G-20
From the text: as §1

[15] = system: Bacillus subtilis; assay: Bactericidal test (MIC), Bacillus subtilis; details: (3) Bacillus subtilis
From the text: as §1

[16] = system: Enterobactor cloacae 147; assay: Bactericidal test (MIC), Enterobactor cloacae 147; details: (7) Enterobactor cloacae 147
From the text: as §1

In the case of `CC(=O)Oc1cccc2cc(C(=O)N[C@@H](C(=O)N[C@@H]3C(=O)N4[C@@H]3SC(C)(C)[C@@H]4C(=O)O)c3ccccc3)c(=O)oc12` [Example 21, D-α-(8-Acetoxycoumarin-3-carbonamido)benzylpenicillin], the MIC [1] is reported as 0.8 µg/mL (≈ 1.38 µM), the MIC [2] is reported as 3.13 µg/mL (≈ 5.4 µM) and the MIC [3] is reported as 3.13 µg/mL (≈ 5.4 µM). It also gave an MIC [4] of 6.25 µg/mL (≈ 10.8 µM), an MIC [5] of under 0.4 µg/mL and an MIC [6] of 12.5 µg/mL (≈ 21.6 µM). It also gave an MIC [7] of under 0.4 µg/mL, an MIC [8] of 12.5 µg/mL (≈ 21.6 µM) and an MIC [9] of 1.56 µg/mL (≈ 2.69 µM). It also gave an MIC [10] of 50 µg/mL (≈ 86.3 µM), an MIC [11] of 1.56 µg/mL (≈ 2.69 µM) and an MIC [12] of under 0.4 µg/mL. For the same compound, the MIC [13] was 0.8 µg/mL (≈ 1.38 µM).

With `CC(=O)Oc1ccc2oc(=O)c(C(=O)N[C@@H](C(=O)N[C@@H]3C(=O)N4[C@@H]3SC(C)(C)[C@@H]4C(=O)O)c3ccc(O)cc3)cc2c1` [Example 17, D(-)-α-(6-Acetoxycoumarin-3-carbonamido)-p-hydroxybenzylpenicillin] the MIC [14] was under 0.4 µg/mL, the MIC [1] was 1.56 µg/mL (≈ 2.62 µM) and the MIC [2] was 3.13 µg/mL (≈ 5.26 µM). It also gave an MIC [3] of 3.13 µg/mL (≈ 5.26 µM), an MIC [4] of 12.5 µg/mL (≈ 21 µM) and an MIC [5] of under 0.4 µg/mL. The MIC [6] was 50 µg/mL (≈ 84 µM), the MIC [15] was under 0.4 µg/mL and the MIC [7] was under 0.4 µg/mL. It also gave an MIC [8] of 6.25 µg/mL (≈ 10.5 µM), an MIC [9] of 3.13 µg/mL (≈ 5.26 µM) and an MIC [16] of 12.5 µg/mL (≈ 21 µM). It also gave an MIC [10] of 25 µg/mL (≈ 42 µM), an MIC [11] of 12.5 µg/mL (≈ 21 µM) and an MIC [12] of 0.8 µg/mL (≈ 1.34 µM). The MIC [13] was 3.13 µg/mL (≈ 5.26 µM).

`CCOc1cccc2cc(C(=O)N[C@@H](C(=O)N[C@@H]3C(=O)N4[C@@H]3SC(C)(C)[C@@H]4C(=O)O)c3ccccc3)c(=O)oc12` [Example 19, D(-)-α-(8-Ethoxycoumarin-3-carbonamido)benzylpenicillin] showed an MIC [14] of under 0.4 µg/mL, an MIC [1] of 1.56 µg/mL (≈ 2.76 µM) and an MIC [2] of 6.25 µg/mL (≈ 11.1 µM). For the same compound, the MIC [3] was 3.13 µg/mL (≈ 5.53 µM), the MIC [4] was 6.25 µg/mL (≈ 11.1 µM) and the MIC [5] was under 0.4 µg/mL. The MIC [6] was 12.5 µg/mL (≈ 22.1 µM), the MIC [15] was under 0.4 µg/mL and the MIC [7] was under 0.4 µg/mL. The MIC [8] was 3.13 µg/mL (≈ 5.53 µM), the MIC [9] was 3.13 µg/mL (≈ 5.53 µM) and the MIC [16] was 6.25 µg/mL (≈ 11.1 µM). It also gave an MIC [10] of 12.5 µg/mL (≈ 22.1 µM), an MIC [11] of 3.13 µg/mL (≈ 5.53 µM) and an MIC [12] of 1.56 µg/mL (≈ 2.76 µM). The MIC [13] was under 0.4 µg/mL.

`CC(=O)Nc1ccc2oc(=O)c(C(=O)N[C@@H](C(=O)N[C@@H]3C(=O)N4[C@@H]3SC(C)(C)[C@@H]4C(=O)O)c3ccccc3)cc2c1` [Example 20, D(-)-α-(6-Acetylaminocoumarin-3-carbonamido)benzylpenicillin] was tested, and the MIC [14] was under 0.4 µg/mL, the MIC [1] was 1.56 µg/mL (≈ 2.7 µM) and the MIC [2] was 6.25 µg/mL (≈ 10.8 µM). The MIC [3] was 3.13 µg/mL (≈ 5.41 µM), the MIC [4] was 6.25 µg/mL (≈ 10.8 µM) and the MIC [5] was under 0.4 µg/mL. It also gave an MIC [6] of 50 µg/mL (≈ 86.4 µM), an MIC [15] of under 0.4 µg/mL and an MIC [7] of under 0.4 µg/mL. It also gave an MIC [8] of 6.25 µg/mL (≈ 10.8 µM), an MIC [9] of 6.25 µg/mL (≈ 10.8 µM) and an MIC [16] of 6.25 µg/mL (≈ 10.8 µM). For the same compound, the MIC [10] was 50 µg/mL (≈ 86.4 µM), the MIC [11] was 6.25 µg/mL (≈ 10.8 µM) and the MIC [12] was 3.13 µg/mL (≈ 5.41 µM). For the same compound, the MIC [13] was 1.56 µg/mL (≈ 2.7 µM).

In the case of `CCOc1ccc2oc(=O)c(C(=O)N[C@@H](C(=O)N[C@@H]3C(=O)N4[C@@H]3SC(C)(C)[C@@H]4C(=O)O)c3ccccc3)cc2c1` [Example 23, D-α-(6-Ethoxycoumarin-3-carbonamido)benzylpenicillin], the MIC [1] is reported as 1.56 µg/mL (≈ 2.76 µM), the MIC [2] is reported as 3.13 µg/mL (≈ 5.53 µM) and the MIC [4] is reported as 6.25 µg/mL (≈ 11.1 µM). The MIC [5] was under 0.4 µg/mL, the MIC [6] was 25 µg/mL (≈ 44.2 µM) and the MIC [7] was under 0.4 µg/mL. For the same compound, the MIC [8] was 3.13 µg/mL (≈ 5.53 µM), the MIC [9] was 3.13 µg/mL (≈ 5.53 µM) and the MIC [16] was 1.56 µg/mL (≈ 2.76 µM). For the same compound, the MIC [10] was 12.5 µg/mL (≈ 22.1 µM), the MIC [11] was 3.13 µg/mL (≈ 5.53 µM) and the MIC [12] was 0.8 µg/mL (≈ 1.41 µM). The MIC [13] was 6.25 µg/mL (≈ 11.1 µM).

`CC1(C)S[C@@H]2[C@H](NC(=O)[C@H](NC(=O)c3cc4cccc(O)c4oc3=O)c3ccccc3)C(=O)N2[C@H]1C(=O)O` [Example 26, D(-)-α-(8-Hydroxycoumarin-3-carbonamido)benzylpenicillin] was tested, and the MIC [1] was 1.56 µg/mL (≈ 2.9 µM), the MIC [2] was 1.56 µg/mL (≈ 2.9 µM) and the MIC [4] was 12.5 µg/mL (≈ 23.3 µM). The MIC [5] was under 0.4 µg/mL, the MIC [6] was 12.5 µg/mL (≈ 23.3 µM) and the MIC [15] was under 0.4 µg/mL. It also gave an MIC [7] of under 0.4 µg/mL, an MIC [8] of 6.25 µg/mL (≈ 11.6 µM) and an MIC [9] of 1.56 µg/mL (≈ 2.9 µM). The MIC [16] was 3.13 µg/mL (≈ 5.82 µM), the MIC [10] was 50 µg/mL (≈ 93 µM) and the MIC [11] was 1.56 µg/mL (≈ 2.9 µM). It also gave an MIC [12] of under 0.4 µg/mL.

`COc1cccc2oc(=O)c(C(=O)N[C@@H](C(=O)N[C@@H]3C(=O)N4[C@@H]3SC(C)(C)[C@@H]4C(=O)O)c3ccccc3)cc12` [Example 24, D-α-(5-Methoxycoumarin-3-carbonamido)benzylpenicillin] was tested, and the MIC [1] was 1.56 µg/mL (≈ 2.83 µM), the MIC [2] was 3.13 µg/mL (≈ 5.67 µM) and the MIC [4] was 6.25 µg/mL (≈ 11.3 µM). It also gave an MIC [5] of under 0.4 µg/mL, an MIC [6] of 25 µg/mL (≈ 45.3 µM) and an MIC [7] of under 0.4 µg/mL. For the same compound, the MIC [8] was 3.13 µg/mL (≈ 5.67 µM), the MIC [9] was 3.13 µg/mL (≈ 5.67 µM) and the MIC [16] was 1.56 µg/mL (≈ 2.83 µM). For the same compound, the MIC [10] was 12.5 µg/mL (≈ 22.7 µM), the MIC [11] was 3.13 µg/mL (≈ 5.67 µM) and the MIC [12] was 0.8 µg/mL (≈ 1.45 µM).
